Assay [1] has as its system Her2 protein in MCF-7 breast cancer cells. Kind of assay: Cell-based Her2 degradation assay by Western Blot. The conditions noted are these: Homo sapiens, read-out: IC50, Her2 degradation WB. The source says:
Addition of Hsp90 inhibitors to cancer cells induces the proteasomal degradation of a subset of proteins involved in signal transduction such as Raf1 kinase, Akt and certain transmembrane tyrosine kinases such as Her2. Thus, Her2 degradation in cells is a functional read-out of Hsp90 inhibition. Correlation between Hsp90 binding and Her2 degradation in cancer cells is indicative of a selective biological effect in these cells via Hsp90.
A Western blot-based assay was used to measure the cellular level of Her2 protein in MCF-7 breast cancer cell lysates collected after 24 hours of compound treatment. […] Then 2×10^5 cells were seeded in 24 well plates in 500 μl PRMI1640 medium and allowed to attach overnight. The compounds were dissolved in DMSO, added to the wells, and incubated for 24 hours. The cells were washed using ice-cold phosphate-buffered saline (PBS) and lysed in 1% NP40 lysis buffer (10 mM HEPES, pH 7.4, 150 mM NaCl, 1% Nonident P-40, 5 mM Pyrophosphate, 5 mM NaF, 2 mM Orthovanadate, 10 ug/ml Aprotinin, 10 ug/ml Leupeptin, 1 mM PMSF). After boiling with 6×SDS sample buffer, the cell lysates were separated by SDS-PAGE and transferred to nitrocellulose membrane. The membranes were blocked with 5% milk in tris-buffered saline buffer.

In assay [2] the test system is SKBR3 breast cancer cells. Kind of assay: Cancer cell growth inhibition assay (CellTiter-Blue). It is filed as cell-based. The conditions noted are these: Homo sapiens, SK-BR-3, Table 2, 96 hours. The protocol:
The effects of the compounds on cancer cell growth were determined using the CellTiter-Blue cell viability assay (Promega). CellTiter-Blue® Cell Viability is based on the ability of living cells to convert a redox dye (resazurin) into a fluorescent end product (resorufin).
The SKBR3 breast cancer cells were plated in 384-well microtiter plates (Costar) and allowed to attach overnight. After treatment with either compounds or vehicle (DMSO) for 96 hours, the cells were measured for their viability by CellTiter-Blue. Briefly, 10 μl of CelTiter-Blue were added to each well in 384-well plates and incubated at 37° C. for 4 hours. The fluorescence intensity (FI) was measured using the Analyst HT plate reader (Molecular Devices) with an excitation at 545 nm and emission at 595 nm. The IC50 was calculated as the compound concentration that inhibits cell viability by 50% compared with vehicle control wells. The IC50 values were determined as described above.
(In general: The colour change of resazurin is a common sign of viable cells or microbes.)

Assay [3] deals with tumor specific Hsp90 (NCI-N417 cell lysate). The experiment in a line: Hsp90 binding FP competition assay. Further details: species or system human. The note with it: Table 2, GM-cy3B 5 nM. From the text:
There are several assays that have been developed to identify novel Hsp90 inhibitors based on the interaction of small molecules with recombinant Hsp90 protein, either yeast or human. To measure a therapeutically significant state of Hsp90, an FP assay that uses human cancer cell lysates instead of recombinant protein (Du, Moulick et al. J. Biomol. Screen, 2007, 12, 915-24) was utilized. It probes the interaction of small molecules with tumor-specific Hsp90 and may therefore lead to inhibitors that are not only selective for cancer cells but also specific for a particular malignancy.
The dose-response effect of the compounds was tested in Hsp90 binding FP competition assays to obtain the IC50 of the compounds. The Hsp90 FP competition assay was performed in 384-well black plate using the small-cell lung carcinoma (SCLC) cell line NCI-N417 as a source of tumor specific Hsp90 and the Cy3B-labeled geldanamycin (GM-cy3B) as the FP ligand. The compound was dissolved in DMSO and added at several concentrations to the reaction buffer containing both GM-cy3B (5 nM) and NCI-N417 cell lysate (1 μg/well) in a final volume of 50 μL. Free GM-cy3B (5 nM) and bound GM-cy3B with NCI-N417 cell lysate (5 nM GM-cy3B and 1 μg/well of NCI-N417 cell lysate) were included as controls in each plate. After incubating at room temperature for 2 to 16 hours, the polarization values were measured and expressed as millipolarization (mP) units using Analyst HT plate reader (Molecular Devices). The competitive efficiency of the compounds were expressed as a percentage of control and calculated according to the following equation:
% of control=((mPc−mPf)/(mPb−mPf))×100
where mPc is the recorded mP from compound wells, mPf is the average recorded mP from GM-cy3B-only wells, and mPb is the average recorded mP from wells containing both GM-cy3B and NCI-N417 lysate. IC50 values were determined using a nonlinear regression analysis as implemented in Prism 4.0 (Graphpad Software).

The subject of assay [4] is Her2 protein in SKBr3 breast cancer cells. The experiment in a line: Cell-based Her2 degradation assay by Cytoblot. The conditions noted are these: Homo sapiens, SK-BR-3, Table 2, values with asterisk, 24 hours. The protocol: Cellular Her2 level after compound treatment was also monitored by microtiter-based Her2 degradation assay, Cytoblot assay (Huezo, Vilenchik et al. Chem. Biol., 2003, 10, 629-634). This is a cell-based assay that enables the quantitative analysis of intracellular levels of Her2 protein.
The human breast cancer cell lines SKBr3 were maintained in RPMI1640 medium supplemented with 10% FBS. 3000 cells in 100 μl of growth medium were plated per well in black, clear-bottom microtiter plates (Corning) and allowed to attach for at least 24 hours at 37° C. and 5% CO2. Compounds at different doses or vehicle (DMSO) were carefully added to the wells and incubated for 24 hours. The cells were washed twice with ice-cold Tris buffer saline (TBS) containing 0.1% Tween 20 (TBST) and fixed with ice-cold methanol. After washing with TBST, the plate was incubated at RT for 1 hour with SuperBlock (Pierce 37535) and overnight at 4° C. with the anti-Her-2 antibody (Santa Cruz Biotechnology). The plate was then washed with TBST and incubated at RT for 2 hours with an anti-rabbit HRP-linked antibody (Sigma A0545). The chemiluminescent substrate solution (Pierce 38040) was added and the plate was read 5 minutes later in an Analyst HT plate reader (Molecular Devices). Luminescence readings resulting from compound-treated cells versus untreated cells (vehicle treated) were quantified and plotted against compound concentrations to give the IC50 values (defined as concentration of compound required to degrade 50% of total Her2).

The mark [5] stands for this setting: MCF7, Table 2, values without asterisk, MCF-7 cells, 24 hours.

Where two headings read alike, the source gives them in different places. Some results are limits rather than exact numbers.

By IC50 is commonly meant the midpoint of a concentration-inhibition curve. Take `COc1ccccc1NC1=CC(=O)C(=O)c2ccccc21` [Compound 50]: the IC50 was 1.25 to 2.5 µM in assay [1] (setting [5]), 1.24 µM in assay [2], 0.09 µM in assay [3] and 3.82 µM in assay [4].

In the case of `O=C1C=C(N2CCN(Cc3cccc(C(F)(F)F)c3)CC2)c2ccccc2C1=O` [Compound 56], the results for the IC50 in assay [2], in assay [3] and in assay [4] were 0.3 µM, 0.53 µM and 1.9 µM, respectively.

`O=C1C=C(N2CCN(S(=O)(=O)c3cc(Cl)cc(Cl)c3O)CC2)c2ccccc2C1=O` [Compound 63]: the IC50 in assay [2] is > 20 µM; in assay [3], 1.31 µM; in assay [4], 26.1 µM.

For `O=C1C=C(N2CCC(Cc3ccccc3)CC2)c2ccccc2C1=O` [Compound 45], the IC50 was 1.25 to 2.5 µM in assay [1] (setting [5]), 0.95 µM in assay [2], 0.23 µM in assay [3] and 2.22 µM in assay [4].

In the case of `COc1cc(Br)c(NC2=CC(=O)C(=O)c3ccccc32)cc1OC` [Compound 66], the figures for the IC50 in assay [2], in assay [3] and in assay [4] were 10.9 µM, 0.61 µM and 22.4 µM, respectively.

On to `O=C1C=C(Nc2ccc3c(c2)OCO3)c2ccccc2C1=O` [Compound 55], for which the IC50 in assay [1] (setting [5]) was 2.5 to 5 µM; in assay [2], 3.17 µM; in assay [3], 0.04 µM; in assay [4] it was 3.76 µM.

Turning to `COc1ccc(NC2=CC(=O)C(=O)c3ccccc32)c(OC)c1` [Compound 53], the IC50 in assay [1] (setting [5]) was 2.5 to 5 µM; in assay [2] it was 1.42 µM; in assay [3], 0.13 µM; in assay [4] it was 3.94 µM.

On to `COc1cc(NC2=CC(=O)C(=O)c3ccccc32)cc(OC)c1` [Compound 54], for which the IC50 in assay [1] (setting [5]) is 2.5 to 5 µM; in assay [2], 7.46 µM; in assay [3], 0.01 µM; in assay [4], 4.17 µM.

As for `O=C1C=C(N2CCC(O)(c3ccc(Cl)cc3)CC2)c2ccccc2C1=O` [Compound 58], the figures for the IC50 in assay [2], in assay [3] and in assay [4] were 0.43 µM, 0.54 µM and 1.68 µM, respectively.

On to `CC(C)CN(CC(C)C)C1=CC(=O)C(=O)c2ccccc21` [Compound 49], for which the concentration for half-maximal inhibition (IC50) was 2.5 to 5 µM in assay [1] (setting [5]), 2.75 µM in assay [2], 1.86 µM in assay [3] and 18.6 µM in assay [4].

For the compound `O=C1C=C(N2CCN(Cc3cccc4ccccc34)CC2)c2ccccc2C1=O` [Compound 59], the IC50 in assay [2] came to 0.62 µM; in assay [3], 0.77 µM; in assay [4], 4.27 µM.

Regarding `O=C1C=C(Nc2cc3c(cc2Br)OCO3)c2ccccc2C1=O` [Compound 65], the IC50 turned out to be 3.66 µM in assay [2], 0.53 µM in assay [3] and 15.3 µM in assay [4].

As for `Cc1cc(C)nc(NC2=CC(=O)C(=O)c3ccccc32)c1` [Compound 67], the values for the half-inhibitory concentration (IC50) in assay [2], in assay [3] and in assay [4] were 0.21 µM, 0.64 µM and 11.4 µM, respectively.

As for `COc1ccc(NC2=CC(=O)C(=O)c3ccccc32)cc1OC` [Compound 61], the figures for the IC50 in assay [2], in assay [3] and in assay [4] were 3.18 µM, 0.39 µM and 4.83 µM, respectively.

For the compound `COc1cc(NC2=CC(=O)C(=O)c3ccccc32)cc(OC)c1OC` [Compound 60], the IC50 in assay [2] was found to be 2.42 µM; in assay [3], 0.18 µM; in assay [4] it was 8.58 µM.

For the compound `O=C1C=C(N2CCNCC2)c2ccccc2C1=O` [Compound 62], the IC50 in assay [2] is > 20 µM; in assay [3] it was 1.55 µM; in assay [4], 22.7 µM.

Turning to `COc1ccc(S(=O)(=O)N2CCN(C3=CC(=O)C(=O)c4ccccc43)CC2)cc1OC` [Compound 64], the IC50 is > 20 µM in assay [2], 0.57 µM in assay [3] and 29.1 µM in assay [4].

Consider `COc1ccc(NC2=CC(=O)C(=O)c3ccccc32)cc1` [Compound 51], for which the IC50 in assay [1] (MCF7, 24 h) is 1.25 to 2.5 µM; in assay [2], 16 µM; in assay [3], 0.07 µM; in assay [4] it was 3.62 µM.

For `O=C1C=C(N2CCN(c3cccc4ccccc34)CC2)c2ccccc2C1=O` [Compound 57], the values for the IC50 in assay [2], in assay [3] and in assay [4] were 0.22 µM, 0.89 µM and 3.9 µM, respectively.
